Two compounds from publication PMC3235152, “Heteromeric Anopheline Odorant Receptors Exhibit Distinct Channel Properties” (PLoS ONE, 2011) can be followed below.

The target in assay [1] is T1, AgOrco + AgOr10 (Anopheles gambiae, UniProt B5U0U7+Q7QCC7).
T1 construct: gene Orco; heteromer of unknown stoichiometry; VUAA1 acts on Orco, odorant on Or10, ruthenium red at the pore
T1 sequence (Q7QCC7 1-478): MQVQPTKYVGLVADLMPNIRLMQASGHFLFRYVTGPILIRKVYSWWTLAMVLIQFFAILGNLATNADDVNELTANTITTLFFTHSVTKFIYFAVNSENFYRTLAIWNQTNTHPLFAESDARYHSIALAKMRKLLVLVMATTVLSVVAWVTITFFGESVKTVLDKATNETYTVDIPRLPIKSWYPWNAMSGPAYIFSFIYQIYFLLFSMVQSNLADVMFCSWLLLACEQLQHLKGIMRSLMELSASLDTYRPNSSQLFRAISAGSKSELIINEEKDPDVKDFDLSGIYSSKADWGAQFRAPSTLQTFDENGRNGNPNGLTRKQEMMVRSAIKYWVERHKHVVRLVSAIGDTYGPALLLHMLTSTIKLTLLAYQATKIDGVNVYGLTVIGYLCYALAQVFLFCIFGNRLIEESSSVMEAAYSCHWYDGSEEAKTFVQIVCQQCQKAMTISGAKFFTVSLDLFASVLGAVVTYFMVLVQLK
T1 sequence (B5U0U7 1-375): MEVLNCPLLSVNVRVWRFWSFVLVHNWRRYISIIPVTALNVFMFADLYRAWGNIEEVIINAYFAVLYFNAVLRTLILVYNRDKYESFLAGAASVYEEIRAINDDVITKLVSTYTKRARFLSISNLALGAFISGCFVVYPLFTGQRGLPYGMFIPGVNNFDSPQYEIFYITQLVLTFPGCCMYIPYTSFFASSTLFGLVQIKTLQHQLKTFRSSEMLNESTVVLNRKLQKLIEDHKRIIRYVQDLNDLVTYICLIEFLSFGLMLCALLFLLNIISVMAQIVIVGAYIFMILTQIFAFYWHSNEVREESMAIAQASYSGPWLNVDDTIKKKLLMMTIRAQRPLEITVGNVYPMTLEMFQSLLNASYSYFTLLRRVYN
The experiment in a line: whole-cell patch clamp, block of agonist-induced current. It counts as cell-based. The settings on record: 100 µM benzaldehyde as agonist; -60 mV; pH 7.35; 20–22°C; pore blocker, noncompetitive with VUAA1.

For another assay, the target named is T2, AgOrco (Anopheles gambiae, UniProt Q7QCC7).
T2 construct: gene Orco; Orco homomer, stoichiometry unknown
T2 sequence (Q7QCC7 1-478): T1 sequence (Q7QCC7 1-478)
Put plainly: Ca++ imaging concentration-response in HEK cells. It counts as cell-based.

The subject of a further assay is T3, AgOrco + AgOr65.
T3 construct: gene Orco; heteromer of unknown stoichiometry; VUAA1 acts on Orco, odorant on Or65, ruthenium red at the pore
The experiment in a line: Ca++ imaging concentration-response in HEK cells. It counts as cell-based, Anopheles gambiae. The settings on record: Orco agonist; AgOrco homomers may coexist.

The next assay has as its target T4, AgOrco + AgOr8 (Anopheles gambiae, UniProt Q7PUT5+Q7QCC7).
T4 construct: gene Orco; heteromer of unknown stoichiometry; VUAA1 acts on Orco, odorant on Or8, ruthenium red at the pore
T4 sequence (Q7QCC7 1-478): T1 sequence (Q7QCC7 1-478)
T4 sequence (Q7PUT5 1-399): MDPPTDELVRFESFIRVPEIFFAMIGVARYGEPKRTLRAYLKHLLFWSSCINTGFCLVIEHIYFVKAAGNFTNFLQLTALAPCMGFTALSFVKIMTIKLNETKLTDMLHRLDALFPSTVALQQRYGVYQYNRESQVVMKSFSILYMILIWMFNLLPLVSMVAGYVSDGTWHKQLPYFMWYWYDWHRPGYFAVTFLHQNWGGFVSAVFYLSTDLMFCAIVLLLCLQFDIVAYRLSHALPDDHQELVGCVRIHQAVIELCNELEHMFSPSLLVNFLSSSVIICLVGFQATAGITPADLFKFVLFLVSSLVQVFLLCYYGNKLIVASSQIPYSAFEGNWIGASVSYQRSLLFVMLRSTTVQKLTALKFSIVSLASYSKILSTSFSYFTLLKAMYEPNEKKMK
Put plainly: Ca++ imaging concentration-response in HEK cells. It counts as cell-based.

Assay [2] concerns the target T1, AgOrco + AgOr10. Put plainly: Ca++ imaging concentration-response in HEK cells. It counts as cell-based.
Another assay relates to T5, AgOrco + AgOr28.
T5 construct: gene Orco; heteromer of unknown stoichiometry; VUAA1 acts on Orco, odorant on Or28, ruthenium red at the pore
Put plainly: Ca++ imaging concentration-response in HEK cells. Type of assay: cell-based, Anopheles gambiae. Particulars: Orco agonist; AgOrco homomers may coexist.

On to `N.N.N.N.N.N.N.N.N.N.N.N.N.N.[Cl-].[Cl-].[Cl-].[Cl-].[Cl-].[Cl-].[O-2].[O-2].[Ru+3].[Ru+3].[Ru+4]` [ruthenium red], for which, at AgOrco + AgOr10 [1], the “% current reduction at 100 μM” value came to 78.5±1.4%.
For the compound `CCc1ccc(NC(=O)CSc2nnc(-c3cccnc3)n2CC)cc1` [VUAA1, N-(4-ethylphenyl)-2-((4-ethyl-5-(3-pyridinyl)-4H-1,2,4-triazol-3-yl)thio)acetamide], the EC50 was 49 µM on AgOrco; −4.42±0.02 logM in the assay with AgOrco + AgOr65; 13.2 µM at AgOrco + AgOr8; 12.3 µM at AgOrco + AgOr10 [2]; −4.47±0.02 logM in the assay with AgOrco + AgOr28.
